Each block holds one molecule with its values, some of them ahead of it.
Biological target: T1, FPRL-1 (Homo sapiens, UniProt P25090)
T1 construct: expressed in transfected cells
T1 sequence (P25090 1-351): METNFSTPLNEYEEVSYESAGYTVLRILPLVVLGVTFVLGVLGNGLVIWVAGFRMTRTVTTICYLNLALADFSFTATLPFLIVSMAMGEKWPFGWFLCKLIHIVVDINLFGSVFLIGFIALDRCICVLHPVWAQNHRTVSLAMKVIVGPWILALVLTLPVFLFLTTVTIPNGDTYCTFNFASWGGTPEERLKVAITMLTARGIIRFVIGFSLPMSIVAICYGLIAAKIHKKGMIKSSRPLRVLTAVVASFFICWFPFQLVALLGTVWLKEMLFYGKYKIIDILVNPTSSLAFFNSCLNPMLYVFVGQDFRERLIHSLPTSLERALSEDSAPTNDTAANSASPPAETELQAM
Experiment: compound-induced calcium activity on FLIPR Tetra in CHO-Ga16 cells stably expressing FPRL1
Type: cell-based
Settings: for FPRL-1 Ga16-CHO (eff): efficacy value in brackets under EC50; for EC50: tested at 0.61 to 10,000 nM
Method: CHO-Ga16 cells stably expressing FPRL1 were cultured in (F12, 10% FBS, 1% PSA, 400 μg/ml geneticin and 50 μg/ml hygromycin) and HEK-Gqi5 cells stable expressing FPR1 were cultured in (DMEM high glucose, 10% FBS, 1% PSA, 400 μg/ml geneticin and 50 μg/ml hygromycin). In general, the day before the experiment, 18,000 cells/well were plated in a 384-well clear bottom poly-d-lysine coated plate. The following day the screening compound-induced calcium activity was assayed on the FLIPR^Tetra. The drug plates were prepared in 384-well microplates using the EP3 and the MultiPROBE robotic liquid handling systems. Compounds were tested at concentrations ranging from 0.61 to 10,000 nM. Results are expressed as EC50 (nM) and efficacy values.

Compound: CS(=O)(=O)c1ccc(NC(=O)Nc2ccc3c(c2)C(=O)N(CCCN)[C@@H](c2ccc(C#N)cc2)C3)cc1 [Compound 15, (R)-1-[2-(3-aminopropyl)-3-(4-cyanophenyl)-1-oxo-1,2,3,4-tetrahydroisoquinolin-7-yl]-3-[4-(methylsulfonyl)phenyl]urea]
FPRL-1 Ga16-CHO (eff): (0.90) | EC50: 29 nM

Compound: CNCCN1C(=O)c2cc(NC(=O)Nc3ccc(C(C)=O)cc3)ccc2CC1c1ccc(C#N)cc1 (stereo not drawn) [Compound 3, 1-(4-acetylphenyl)-3-{3-(4-cyanophenyl)-2-[2-(methylamino)ethyl]-1-oxo-1,2,3,4-tetrahydroisoquinolin-7-yl}urea]
FPRL-1 Ga16-CHO (eff): (1.00) | EC50: 32 nM

Compound: CSc1ccc(NC(=O)Nc2ccc3c(c2)C(=O)N(CCCN)C(c2ccc(C#N)cc2)C3)cc1 (stereo not drawn) [Compound 5, 1-[2-(3-aminopropyl)-3-(4-cyanophenyl)-1-oxo-1,2,3,4-tetrahydroisoquinolin-7-yl]-3-[4-(methylthio)phenyl]urea]
FPRL-1 Ga16-CHO (eff): (0.70) | EC50: 2.5 nM

Compound: CC(=O)c1ccc(NC(=O)Nc2ccc3c(c2)C(=O)N(CCCN)C(c2ccc(C#N)cc2)C3)cc1 (stereo not drawn) [Compound 1, 1-(4-acetylphenyl)-3-[2-(3-aminopropyl)-3-(4-cyanophenyl)-1-oxo-1,2,3,4-tetrahydroisoquinolin-7-yl]urea]
FPRL-1 Ga16-CHO (eff): (1.00) | EC50: 40 nM

Compound: CC(=O)c1ccc(NC(=O)Nc2ccc3c(c2)C(=O)N(CCN)C(c2ccc(C#N)cc2)C3)cc1 (stereo not drawn) [Compound 2, 1-(4-acetylphenyl)-3-[2-(2-aminoethyl)-3-(4-cyanophenyl)-1-oxo-1,2,3,4-tetrahydroisoquinolin-7-yl]urea]
FPRL-1 Ga16-CHO (eff): (0.90) | EC50: 34 nM

Compound: CSc1ccc(NC(=O)Nc2ccc3c(c2)C(=O)N(CCCN)C(C)C3)cc1 (stereo not drawn) [Compound 16, 1-[2-(3-aminopropyl)-3-methyl-1-oxo-1,2,3,4-tetrahydroisoquinolin-7-yl]-3-[4-(methylthio)phenyl]urea]
FPRL-1 Ga16-CHO (eff): (0.89) | EC50: 15 nM

Compound: CSc1ccc(NC(=O)Nc2ccc3c(c2)C(=O)N(CCCN)[C@@H](c2ccc(C#N)cc2)C3)cc1 [Compound 11, (R)-1-[2-(3-aminopropyl)-3-(4-cyanophenyl)-1-oxo-1,2,3,4-tetrahydroisoquinolin-7-yl]-3-[4-(methylthio)phenyl]urea]
FPRL-1 Ga16-CHO (eff): (0.97) | EC50: 3.3 nM

Compound: CC1Cc2ccc(NC(=O)Nc3ccc(S(C)(=O)=O)cc3)cc2C(=O)N1CCCN (stereo not drawn) [Compound 17, 1-[2-(3-aminopropyl)-3-methyl-1-oxo-1,2,3,4-tetrahydroisoquinolin-7-yl]-3-[4-(methylsulfonyl)phenyl]urea]
FPRL-1 Ga16-CHO (eff): (88) | EC50: 150 nM

Compound: CS(=O)(=O)c1ccc(NC(=O)Nc2ccc3c(c2)C(=O)N(CCCN)C(c2ccc(C#N)cc2)C3)cc1 (stereo not drawn) [Compound 8, 1-[2-(3-aminopropyl)-3-(4-cyanophenyl)-1-oxo-1,2,3,4-tetrahydroisoquinolin-7-yl]-3-[4-(methylsulfonyl)phenyl]urea]
FPRL-1 Ga16-CHO (eff): (0.86) | EC50: 10 nM

Compound: C[S+]([O-])c1ccc(NC(=O)Nc2ccc3c(c2)C(=O)N(CCCN)C(c2ccc(C#N)cc2)C3)cc1 (stereo not drawn) [Compound 7, 1-[2-(3-aminopropyl)-3-(4-cyanophenyl)-1-oxo-1,2,3,4-tetrahydroisoquinolin-7-yl]-3-[4-(methylsulfinyl)phenyl]urea]
FPRL-1 Ga16-CHO (eff): (0.92)

Compound: N#Cc1ccc(C2Cc3ccc(NC(=O)Nc4ccc(C(F)(F)F)cc4)cc3C(=O)N2CCCN)cc1 (stereo not drawn) [Compound 4, 1-[2-(3-aminopropyl)-3-(4-cyanophenyl)-1-oxo-1,2,3,4-tetrahydroisoquinolin-7-yl]-3-[4-(trifluoromethyl)phenyl]urea]
FPRL-1 Ga16-CHO (eff): (0.78) | EC50: 21 nM

Compound: N#Cc1ccc(C2Cc3ccc(NC(=O)Nc4ccc(Br)cc4)cc3C(=O)N2CCCN)cc1 (stereo not drawn) [Compound 6, 1-[2-(3-aminopropyl)-3-(4-cyanophenyl)-1-oxo-1,2,3,4-tetrahydroisoquinolin-7-yl]-3-(4-bromophenyl)urea]
FPRL-1 Ga16-CHO (eff): (1.00) | EC50: 31 nM

Continued, values first:

FPRL-1 Ga16-CHO (eff): (1.04) | EC50: 28 nM
Compound: CC(=O)c1ccc(NC(=O)Nc2ccc3c(c2)C(=O)N(CCc2c[nH]cn2)C(c2ccc(Cl)c(Cl)c2)C3)cc1 (stereo not drawn) [Compound 20, 1-(4-acetylphenyl)-3-{3-(3,4-dichlorophenyl)-2-[2-(1H-imidazol-4-yl)ethyl]-1-oxo-1,2,3,4-tetrahydroisoquinolin-7-yl}urea]

FPRL-1 Ga16-CHO (eff): (0.99) | EC50: 9.5 nM
Compound: CS(=O)(=O)c1ccc(NC(=O)Nc2ccc3c(c2)C(=O)N(CCc2c[nH]cn2)C(c2ccc(Cl)cn2)C3)cc1 (stereo not drawn) [Compound 34, 1-{3-(5-chloropyridin-2-yl)-2-[2-(1H-imidazol-4-yl)ethyl]-1-oxo-1,2,3,4-tetrahydroisoquinolin-7-yl}-3-[4-(methylsulfonyl)phenyl]urea]

FPRL-1 Ga16-CHO (eff): (0.96) | EC50: 22 nM
Compound: C[S+]([O-])c1ccc(NC(=O)Nc2ccc3c(c2)C(=O)N(CCc2c[nH]cn2)C(c2ccc(C#N)cc2)C3)cc1 (stereo not drawn) [Compound 29, 1-{3-(4-cyanophenyl)-2-[2-(1H-imidazol-4-yl)ethyl]-1-oxo-1,2,3,4-tetrahydroisoquinolin-7-yl}-3-[4-(methylsulfinyl)phenyl]urea]

FPRL-1 Ga16-CHO (eff): (1.0) | EC50: 10.5 nM
Compound: CS(=O)(=O)c1ccc(NC(=O)Nc2ccc3c(c2)C(=O)N(CCc2c[nH]cn2)C(c2ccc(F)cn2)C3)cc1 (stereo not drawn) [Compound 32, 1-{3-(5-fluoropyridin-2-yl)-2-[2-(1H-imidazol-4-yl)ethyl]-1-oxo-1,2,3,4-tetrahydroisoquinolin-7-yl}-3-[4-(methylsulfonyl)phenyl]urea]

FPRL-1 Ga16-CHO (eff): (1.00) | EC50: 20 nM
Compound: CS(=O)(=O)c1ccc(NC(=O)Nc2ccc3c(c2)C(=O)N(CCc2c[nH]cn2)C(c2ccc(C#N)cc2)C3)cc1 (stereo not drawn) [Compound 30, 1-{3-(4-cyanophenyl)-2-[2-(1H-imidazol-4-yl)ethyl]-1-oxo-1,2,3,4-tetrahydroisoquinolin-7-yl}-3-[4-(methylsulfonyl)phenyl]urea]

FPRL-1 Ga16-CHO (eff): (0.83) | EC50: 19 nM
Compound: CSc1ccc(NC(=O)Nc2ccc3c(c2)C(=O)N(CCc2c[nH]cn2)C(c2ccco2)C3)cc1 (stereo not drawn) [Compound 23, 1-{3-(2-furyl)-2-[2-(1H-imidazol-4-yl)ethyl]-1-oxo-1,2,3,4-tetrahydroisoquinolin-7-yl}-3-[4-(methylthio)phenyl]urea]

FPRL-1 Ga16-CHO (eff): (0.81) | EC50: 17 nM
Compound: CSc1ccc(NC(=O)Nc2ccc3c(c2)C(=O)N(CCc2c[nH]cn2)C(c2ccc(Cl)o2)C3)cc1 (stereo not drawn) [Compound 24, 1-{3-(5-chloro-2-furyl)-2-[2-(1H-imidazol-4-yl)ethyl]-1-oxo-1,2,3,4-tetrahydroisoquinolin-7-yl}-3-[4-(methylthio)phenyl]urea]

FPRL-1 Ga16-CHO (eff): (0.81) | EC50: 24 nM
Compound: CC(=O)c1ccc(NC(=O)Nc2ccc3c(c2)C(=O)N(CCc2c[nH]cn2)C(c2ccc(Cl)nc2)C3)cc1 (stereo not drawn) [Compound 25, 1-(4-acetylphenyl)-3-{3-(6-chloropyridin-3-yl)-2-[2-(1H-imidazol-4-yl)ethyl]-1-oxo-1,2,3,4-tetrahydroisoquinolin-7-yl}urea]

FPRL-1 Ga16-CHO (eff): (0.80) | EC50: 11 nM
Compound: CC(=O)c1ccc(NC(=O)Nc2ccc3c(c2)C(=O)N(CCc2c[nH]cn2)C(c2ccc(C#N)cc2)C3)cc1 (stereo not drawn) [Compound 18, 1-(4-acetylphenyl)-3-{3-(4-cyanophenyl)-2-[2-(1H-imidazol-4-yl)ethyl]-1-oxo-1,2,3,4-tetrahydroisoquinolin-7-yl}urea]

FPRL-1 Ga16-CHO (eff): (0.78) | EC50: 32 nM
Compound: N#Cc1ccc(C2Cc3ccc(NC(=O)Nc4ccc(C(F)(F)F)cc4)cc3C(=O)N2CCc2c[nH]cn2)cc1 (stereo not drawn) [Compound 19, 1-{3-(4-cyanophenyl)-2-[2-(1H-imidazol-4-yl)ethyl]-1-oxo-1,2,3,4-tetrahydroisoquinolin-7-yl}-3-[4-(trifluoromethyl)phenyl]urea]

FPRL-1 Ga16-CHO (eff): (0.89) | EC50: 6.3 nM
Compound: CSc1ccc(NC(=O)Nc2ccc3c(c2)C(=O)N(CCc2c[nH]cn2)C(c2ccc(Cl)nc2)C3)cc1 (stereo not drawn) [Compound 26, 1-{3-(6-chloropyridin-3-yl)-2-[2-(1H-imidazol-4-yl)ethyl]-1-oxo-1,2,3,4-tetrahydroisoquinolin-7-yl}-3-[4-(methylthio)phenyl]urea]

Source: patent US8809367B2, “1-1-Oxo-1,2,3,4-tetrahydroisoquinolin-7-yl)urea derivatives as N-formyl peptide receptor like-1 (FPRL-1) receptor modulators” (Allergan, Inc., priority 2011, dated 2014)
